Reference: ChEMBL document CHEMBL5215004, “Meroantarctines A-C, Meroterpenoids with Rearranged Skeletons from the Alga-Derived Fungus Penicillium antarcticum KMM 4685 with Potent p-Glycoprotein Inhibitory Activity” (J Nat Prod, 2022)
Activity calls are given as the source filed them. No cut-off for these calls is given here.

Key:
PC-3 [1] = assay: Synergistic cytotoxicity against docetaxel-resistant human PC-3 cells assessed as reduction in cell viability at 12.5 to 100 uM incubated for 48 hrs in the presence of docetaxel by MTT assay; assay type: functional, cell-based; details: dose 12.5-100 µM
PNT2 = assay: Cytotoxicity against human PNT2 cells assessed as reduction in cell viability at <= 100 uM incubated for 48 hrs by MTT assay; assay type: toxicity, cell-based; details: pnt2, 48 h
[2] = biological target: ATP-dependent translocase ABCB1 (Homo sapiens, UniProt P08183); assay: Inhibition of p-glycoprotein in docetaxel-resistant human PC-3 cells assessed as inhibition of calcein excretion at 0.39 to 50 uM incubated for 30 mins by fluorescence based plate reader analysis; assay type: cell-based; details: pc-3, 0.5 h, dose 0.39-50 µM
RWPE-1 = assay: Cytotoxicity against human RWPE-1 cells assessed as reduction in cell viability at <= 100 uM incubated for 48 hrs by MTT assay; assay type: toxicity, cell-based; details: rwpe-1, 48 h
PC-3 [3] = assay: Cytotoxicity against docetaxel-resistant human PC-3 cells assessed as reduction in cell viability at 0.5 to 64 uM pretreated with tariquidar for 1 hrs followed by compound addition and measured after 48 hrs by MTT assay; assay type: functional, cell-based; details: dose 0.5-64 µM

Chain of ATP-dependent translocase ABCB1 (P08183 whole entry): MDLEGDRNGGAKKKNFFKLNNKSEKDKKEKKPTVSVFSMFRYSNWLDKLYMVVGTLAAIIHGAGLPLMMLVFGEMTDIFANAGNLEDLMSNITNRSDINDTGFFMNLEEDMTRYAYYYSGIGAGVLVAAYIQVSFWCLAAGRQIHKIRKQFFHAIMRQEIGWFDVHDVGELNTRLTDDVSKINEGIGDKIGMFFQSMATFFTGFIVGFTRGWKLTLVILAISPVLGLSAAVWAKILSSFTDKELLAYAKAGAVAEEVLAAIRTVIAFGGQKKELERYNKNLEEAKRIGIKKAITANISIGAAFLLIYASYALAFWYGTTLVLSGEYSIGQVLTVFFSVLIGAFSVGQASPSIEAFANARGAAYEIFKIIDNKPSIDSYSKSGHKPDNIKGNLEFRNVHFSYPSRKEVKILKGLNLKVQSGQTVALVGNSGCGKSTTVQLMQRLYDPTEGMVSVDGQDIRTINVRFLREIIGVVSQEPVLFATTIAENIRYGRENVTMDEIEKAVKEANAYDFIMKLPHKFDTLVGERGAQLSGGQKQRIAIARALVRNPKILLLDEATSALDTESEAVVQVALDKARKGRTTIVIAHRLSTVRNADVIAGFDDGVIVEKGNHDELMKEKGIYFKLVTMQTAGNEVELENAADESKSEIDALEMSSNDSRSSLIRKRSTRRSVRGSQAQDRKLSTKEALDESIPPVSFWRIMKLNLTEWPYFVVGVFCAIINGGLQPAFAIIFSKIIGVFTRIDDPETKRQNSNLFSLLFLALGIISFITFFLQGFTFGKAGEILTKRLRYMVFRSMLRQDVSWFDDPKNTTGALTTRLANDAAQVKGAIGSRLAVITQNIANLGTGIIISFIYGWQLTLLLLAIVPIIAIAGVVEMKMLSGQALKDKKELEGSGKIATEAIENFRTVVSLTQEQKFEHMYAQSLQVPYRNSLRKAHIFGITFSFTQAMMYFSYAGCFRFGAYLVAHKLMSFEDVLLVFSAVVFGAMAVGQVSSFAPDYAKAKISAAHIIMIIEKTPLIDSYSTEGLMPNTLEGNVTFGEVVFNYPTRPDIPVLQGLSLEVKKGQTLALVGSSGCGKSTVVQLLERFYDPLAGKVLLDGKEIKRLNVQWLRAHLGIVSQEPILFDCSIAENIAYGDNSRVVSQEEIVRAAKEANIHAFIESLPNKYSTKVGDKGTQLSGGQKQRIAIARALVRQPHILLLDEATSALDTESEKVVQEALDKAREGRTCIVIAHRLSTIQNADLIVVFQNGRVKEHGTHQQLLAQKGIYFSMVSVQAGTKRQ

| inhibition (INH) [2] | SMILES | Activity (PC-3 [1]) | Activity (PNT2) | Activity (RWPE-1) | Activity (PC-3 [3]) |
| --- | --- | --- | --- | --- | --- |
| Active | COC(=O)[C@@]12C(=O)C(=O)O[C@@]3(C=C1C)[C@]2(C)C[C@@H]1OC(=O)[C@]32CC[C@H](OC(C)=O)C(C)(C)[C@@H]12 | Active | Non-Toxic | Non-Toxic |  |
|  | CC(=O)O[C@@]12CO[C@@H]1C[C@H](O)[C@@]1(C)C(=O)[C@H](O)C3=C(C)[C@@H](OC(=O)[C@H](O)[C@@H](NC(=O)OC(C)(C)C)c4ccccc4)C[C@@](O)([C@@H](OC(=O)c4ccccc4)[C@H]21)C3(C)C |  |  |  | Active |
| Active | COC(=O)[C@@]1(C(=O)C(C)=O)C(C)=C(C)C=C2[C@]34CC[C@H](OC(C)=O)C(C)(C)[C@H]3[C@H](C[C@@]21C)OC4=O | Active | Non-Toxic | Non-Toxic |  |
| Active | COC(=O)[C@H]1C(=O)O[C@]2(/C=C(\C)C(C)=O)[C@]34CC[C@H](OC(C)=O)C(C)(C)[C@H]3[C@H](C[C@]12C)OC4=O | Active | Non-Toxic | Non-Toxic |  |

| SMILES | inhibition (INH) [2] | Activity (PC-3 [1]) | Activity (PNT2) | Activity (RWPE-1) | Activity (PC-3 [3]) |
| --- | --- | --- | --- | --- | --- |
| C=C1C=C2[C@]34CC[C@H](OC(C)=O)C(C)(C)[C@H]3[C@H](C[C@]2(C)[C@]2(C(=O)OC)C(=O)[C@](C)(O)C(=O)[C@]12C)OC4=O | Active | Active | Non-Toxic | Non-Toxic |  |
